Source: patent publication US10308650B2, “Pesticidally active tetracyclic derivatives with sulfur containing substituents” (Syngenta Participations AG, priority 2014, dated 2019)

Columns and labels:
Type in all cases: in vivo
[1] = test system: Myzus persicae (Green Peach Aphid); assay: Activity against Myzus persicae: feeding/contact activity; conditions: foliar, 144 h, application rate of 200 ppm, sunflower leaf discs, aphid population of mixed ages, 6 days after infestation, read-out: mortality
Description: Example B5: Activity Against Myzus persicae (Green Peach Aphid): Feeding/Contact Activity
Sunflower leaf discs were placed onto agar in a 24-well microtiter plate and sprayed with aqueous test solutions prepared from 10,000 ppm DMSO stock solutions. After drying, the leaf discs were infested with an aphid population of mixed ages. The samples were assessed for mortality 6 days after infestation.

[2] = test system: Euschistus heros (Neotropical Brown Stink Bug); assay: Activity against Euschistus heros; conditions: 120 h, application rate of 200 ppm, soybean leaves, N2 nymphs, 5 days after infestation, read-out: effect in at least one of the two categories (mortality or growth inhibition)
Description: Example B3: Activity Against Euschistus heros (Neotropical Brown Stink Bug)
Soybean leaves on agar in 24-well microtiter plates were sprayed with aqueous test solutions prepared from 10,000 ppm DMSO stock solutions. After drying the leaves were infested with N2 nymphs. The samples were assessed for mortality and growth inhibition in comparison to untreated samples 5 days after infestation.

[3] = test system: Diabrotica balteata (Corn Root Worm); assay: Activity against Diabrotica balteata; conditions: 96 h, application rate of 200 ppm, maize sprouts, L2 larvae, 4 days after infestation, read-out: effect in at least one of the two categories (mortality or growth inhibition)
Description: Example B2: Activity Against Diabrotica balteata (Corn Root Worm)
Maize sprouts placed onto an agar layer in 24-well microtiter plates were treated with aqueous test solutions prepared from 10,000 ppm DMSO stock solutions by spraying. After drying, the plates were infested with L2 larvae (6 to 10 per well). The samples were assessed for mortality and growth inhibition in comparison to untreated samples 4 days after infestation.

[4] = test system: Aedes aegypti (Yellow Fever Mosquito); assay: Activity against Aedes aegypti; conditions: 200 ppm in ethanol, dry deposit in 12 well plates, adult females, after 48 h and/or 24 h
Description: Example B13: Activity Against Aedes aegypti (Yellow Fever Mosquito)
Test solutions, at an application rate of 200 ppm in ethanol, were applied to 12 well tissue culture plates. Once the deposits were dry, five, two to five day old adult female Aedes aegypti were added to each well, and sustained with a 10% sucrose solution in a cotton wool plug. Assessment of knockdown was made one hour after introduction, and mortality was assessed at 24 and 48 hours after introduction.

[5] = test system: Myzus persicae (Green Peach Aphid); assay: Activity against Myzus persicae: intrinsic activity; conditions: 120 h, test rate of 12 ppm, sucrose solution under Parafilm, 5 days after infestation, read-out: mortality
Text: Example B7: Activity Against Myzus persicae (Green Peach Aphid). Intrinsic Activity
Test compounds prepared from 10,000 ppm DMSO stock solutions were applied by pipette into 24-well microtiter plates and mixed with sucrose solution. The plates were closed with a stretched Parafilm. A plastic stencil with 24 holes was placed onto the plate and infested pea seedlings were placed directly on the Parafilm. The infested plate was closed with a gel blotting paper and another plastic stencil and then turned upside down. The samples were assessed for mortality 5 days after infestation.

[6] = test system: Plutella xylostella (Diamond Back Moth); assay: Activity against Plutella xylostella; conditions: 120 h, application rate of 200 ppm, artificial diet, L2 larvae, 5 days after infestation, read-out: effect in at least one of the two categories (mortality or growth inhibition)
Description: Example B8: Activity Against Plutella xylostella (Diamond Back Moth)
24-well microtiter plates with artificial diet were treated with aqueous test solutions prepared from 10,000 ppm DMSO stock solutions by pipetting. After drying, the plates were infested with L2 larvae (10 to 15 per well). The samples were assessed for mortality and growth inhibition in comparison to untreated samples 5 days after infestation.

[7] = test system: Tetranychus urticae (Two-Spotted Spider Mite); assay: Activity against Tetranychus urticae: feeding/contact activity; conditions: foliar, 192 h, application rate of 200 ppm, bean leaf discs, mixed population (mobile stages), 8 days after infestation
Description: Example B11: Activity Against Tetranychus urticae (Two-Spotted Spider Mite): Feeding/Contact Activity
Bean leaf discs on agar in 24-well microtiter plates were sprayed with aqueous test solutions prepared from 10,000 ppm DMSO stock solutions. After drying the leaf discs were infested with a mite population of mixed ages. The samples were assessed for mortality on mixed population (mobile stages) 8 days after infestation.

[8] = test system: Spodoptera littoralis (Egyptian Cotton Leaf Worm); assay: Activity against Spodoptera littoralis (cotton leaf discs, spray); conditions: foliar, 72 h, application rate of 200 ppm, cotton leaf discs, L1 larvae, 3 days after infestation, read-out: control (mortality, anti-feeding effect, growth inhibition)
Description: Example B9: Activity Against Spodoptera littoralis (Egyptian Cotton Leaf Worm)
Cotton leaf discs were placed onto agar in 24-well microtiter plates and sprayed with aqueous test solutions prepared from 10,000 ppm DMSO stock solutions. After drying the leaf discs were infested with five L1 larvae. The samples were assessed for mortality, anti-feeding effect, and growth inhibition in comparison to untreated samples 3 days after infestation. Control of Spodoptera littoralis by a test sample is given when at least one of the categories mortality, anti-feedant effect, and growth inhibition is higher than the untreated sample.

[9] = test system: Spodoptera littoralis (Egyptian Cotton Leaf Worm); assay: Activity against Spodoptera littoralis (lettuce, uptake by the roots from agar); conditions: 144 h, test rate of 12.5 ppm, lettuce grown on treated agar, Spodoptera eggs, 6 days after infestation, read-out: effect in at least one of the three categories (mortality, anti-feeding, or growth inhibition)
Text: Example B10: Activity Against Spodoptera littoralis (Egyptian Cotton Leaf Worm)
Test compounds were applied by pipette from 10,000 ppm DMSO stock solutions into 24-well plates and mixed with agar. Lettuce seeds were placed onto the agar and the multi well plate was closed by another plate which contained also agar. After 7 days the compound was absorbed by the roots and the lettuce grew into the lid plate. The lettuce leaves were then cut off into the lid plate. Spodoptera eggs were pipetted through a plastic stencil onto a humid gel blotting paper and the lid plate was closed with it. The samples were assessed for mortality, anti-feedant effect and growth inhibition in comparison to untreated samples 6 days after infestation.

[10] = test system: Myzus persicae (Green Peach Aphid); assay: Activity against Myzus persicae: systemic activity; conditions: 144 h, test rate of 24 ppm, roots of infested pea seedlings in test solution, 6 days, read-out: mortality
Description: Example B6: Activity Against Myzus persicae (Green Peach Aphid). Systemic Activity
Roots of pea seedlings infested with an aphid population of mixed ages were placed directly into aqueous test solutions prepared from 10,000 DMSO stock solutions. The samples were assessed for mortality 6 days after placing seedlings into test solutions.

[11] = test system: Frankliniella occidentalis (Western Flower Thrips); assay: Activity against Frankliniella occidentalis: feeding/contact activity; conditions: foliar, 168 h, application rate of 200 ppm, sunflower leaf discs, population of mixed ages, 7 days after infestation
Description: Example B4: Activity Against Frankliniella occidentalis (Western Flower Thrips): Feeding/Contact Activity
(§1) Sunflower leaf discs were placed on agar in 24-well microtiter plates and sprayed with aqueous test solutions prepared from 10,000 DMSO stock solutions. After drying the leaf discs were infested with a Frankliniella population of mixed ages. The samples were assessed for mortality 7 days after infestation.

[12] = test system: Thrips tabaci (Onion Thrips); assay: Activity against Thrips tabaci: feeding/contact activity; conditions: foliar, 144 h, application rate of 200 ppm, sunflower leaf discs, thrips population of mixed ages, 6 days after infestation
Description: Example B12: Activity Against Thrips tabaci (Onion Thrips) Feeding/Contact Activity
as §1, with “10,000 ppm” for “10,000”, “thrips” for “Frankliniella”, “6” for “7”

[13] = test system: Bemisia tabaci (Cotton White Fly); assay: Activity against Bemisia tabaci: feeding/contact activity; conditions: foliar, 144 h, application rate of 200 ppm, cotton leaf discs, adult white flies, 6 days after incubation
Description: Example B1: Activity Against Bemisia tabaci (Cotton White Fly): Feeding/Contact Activity
Cotton leaf discs were placed on agar in 24-well microtiter plates and sprayed with aqueous test solutions prepared from 10,000 ppm DMSO stock solutions. After drying the leaf discs were infested with adult white flies. The samples were checked for mortality 6 days after incubation.

CCS(=O)(=O)c1cc2ccccc2cc1-c1nc2cc(C(F)(F)F)ncc2n1C [Compound A24, 2-(3-ethylsulfonyl-2-naphthyl)-3-methyl-6-(trifluoromethyl)imidazo[4,5-c]pyridine]
≥ 80%: mortality at 200 ppm [1] | percent effect (mortality or growth inhibition) at 200 ppm [2] | percent effect (mortality or growth inhibition) at 200 ppm [3] | pest or weed control at 200 ppm [4] | mortality at 12 ppm [5] | percent effect (mortality or growth inhibition) at 200 ppm [6] | mortality at 200 ppm [7] | mortality at 200 ppm [8] | percent effect (mortality, anti-feeding or growth inhibition) at 12.5 ppm [9]

CCS(=O)(=O)c1cc2nc(C(F)(F)F)[nH]c2cc1-c1nc2cc(C(F)(F)F)ncc2n1C [Compound A7, 2-[6-ethylsulfonyl-2-(trifluoromethyl)-3H-benzimidazol-5-yl]-3-methyl-6-(trifluoromethyl)imidazo[4,5-c]pyridine]
≥ 80%: mortality at 200 ppm [7] | mortality at 200 ppm [8]

CCS(=O)(=O)c1cc2c(cc1-c1nc3cc(C(F)(F)F)ncc3n1C)nc(C(F)(F)F)n2C [Compound A9, 2-[6-ethylsulfonyl-1-methyl-2-(trifluoromethyl)benzimidazol-5-yl]-3-methyl-6-(trifluoromethyl)imidazo[4,5-c]pyridine]
≥ 80%: mortality at 200 ppm [1] | percent effect (mortality or growth inhibition) at 200 ppm [2] | mortality at 24 ppm [10] | mortality at 200 ppm [11] | percent effect (mortality or growth inhibition) at 200 ppm [3] | mortality at 200 ppm [12] | pest or weed control at 200 ppm [4] | percent effect (mortality or growth inhibition) at 200 ppm [6] | mortality at 200 ppm [8] | mortality at 200 ppm [13] | percent effect (mortality, anti-feeding or growth inhibition) at 12.5 ppm [9]

CCS(=O)(=O)c1cc2c(C3CC3)cccc2nc1-c1nc2cc(C(F)(F)F)ncc2n1C [Compound A43, 5-cyclopropyl-3-ethylsulfonyl-2-[3-methyl-6-(trifluoromethyl)imidazo[4,5-c]pyridin-2-yl]quinoline]
≥ 80%: mortality at 200 ppm [1] | percent effect (mortality or growth inhibition) at 200 ppm [2] | percent effect (mortality or growth inhibition) at 200 ppm [3] | percent effect (mortality or growth inhibition) at 200 ppm [6] | mortality at 200 ppm [7] | mortality at 200 ppm [8] | percent effect (mortality, anti-feeding or growth inhibition) at 12.5 ppm [9]

CCS(=O)(=O)c1cc2c(nc1-c1nc3cc(C(F)(F)F)ncc3n1C)CC(C)(C)O2 [Compound A59, 6-ethylsulfonyl-2,2-dimethyl-5-[3-methyl-6-(trifluoromethyl)imidazo[4,5-c]pyridin-2-yl]-3H-furo[3,2-b]pyridine]
≥ 80%: mortality at 200 ppm [1] | percent effect (mortality or growth inhibition) at 200 ppm [2] | mortality at 24 ppm [10] | percent effect (mortality or growth inhibition) at 200 ppm [3] | mortality at 200 ppm [12] | percent effect (mortality or growth inhibition) at 200 ppm [6] | mortality at 200 ppm [8] | mortality at 200 ppm [13] | percent effect (mortality, anti-feeding or growth inhibition) at 12.5 ppm [9]

CCS(=O)(=O)c1cc2nc(C(F)(F)F)sc2cc1-c1nc2cc(C(F)(F)F)ncc2n1C [Compound A31, 5-ethylsulfonyl-6-[3-methyl-6-(trifluoromethyl)imidazo[4,5-c]pyridin-2-yl]-2-(trifluoromethyl)-1,3-benzothiazole]
≥ 80%: mortality at 200 ppm [1] | percent effect (mortality or growth inhibition) at 200 ppm [2] | mortality at 200 ppm [11] | percent effect (mortality or growth inhibition) at 200 ppm [3] | pest or weed control at 200 ppm [4] | percent effect (mortality or growth inhibition) at 200 ppm [6] | mortality at 200 ppm [8] | mortality at 200 ppm [13] | percent effect (mortality, anti-feeding or growth inhibition) at 12.5 ppm [9]

CCS(=O)(=O)c1cc2nc(C(F)(F)F)n(C)c2nc1-c1nc2cc(C(F)(F)F)ncc2n1C [Compound A32, 6-ethylsulfonyl-3-methyl-5-[3-methyl-6-(trifluoromethyl)imidazo[4,5-c]pyridin-2-yl]-2-(trifluoromethyl)imidazo[4,5-b]pyridine]
≥ 80%: mortality at 200 ppm [1] | percent effect (mortality or growth inhibition) at 200 ppm [2] | mortality at 24 ppm [10] | percent effect (mortality or growth inhibition) at 200 ppm [3] | mortality at 200 ppm [12] | pest or weed control at 200 ppm [4] | percent effect (mortality or growth inhibition) at 200 ppm [6] | mortality at 200 ppm [8] | mortality at 200 ppm [13] | percent effect (mortality, anti-feeding or growth inhibition) at 12.5 ppm [9]
